Reference: patent US8349870B2 (priority 2008, dated 2013)
Where two headings read alike, the source gives them in different places.

Experiments:
Type in all cases: in vivo
Phytophthora infestans [1] = details: tomato late blight, sprayed the day before inoculation
Phytophthora infestans [2] = details: tomato late blight, sprayed 17 h after inoculation
Plasmopara viticola = experiment: Test A: grape downy mildew, spray after inoculation, visual disease rating (% disease control); details: 100 = 100% disease control, 0 = no control
Text: General protocol for preparing test suspensions for Test A-C: The test compounds were first dissolved in acetone in an amount equal to 3% of the final volume and then suspended at the desired concentration (in ppm) in acetone and purified water (50/50 mix by volume) containing 250 ppm of the surfactant Trem® 014 (polyhydric alcohol esters). The resulting test suspensions were then used in Tests A-C. Spraying a 200 ppm test suspension to the point of run-off on the test plants was equivalent to a rate of 500 g/ha.
Grape seedlings were inoculated with a spore suspension of Plasmopara viticola (the causal agent of grape downy mildew) and incubated in a saturated atmosphere at 20° C. for 24 h. After a short drying period, the test suspension was sprayed to the point of run-off on the grape seedlings, which were then moved to a growth chamber at 20° C. for 5 days, after which time the grape seedling were placed back into a saturated atmosphere at 20° C. for 24 h. Upon removal, visual disease ratings were made.
Results for Tests A-C are given in Table A. In the table, a rating of 100 indicates 100% disease control and a rating of 0 indicates no disease control (relative to the controls). A dash (-) indicates no test results, “*” indicates compound was tested at 40 ppm and “**” indicates compound was tested at 10 ppm.

Compound	Test B rating (% disease control) (Phytophthora infestans [1]; "*" compound tested at 40 ppm)	Test C rating (% disease control) (Phytophthora infestans [2]; "*" compound tested at 40 ppm)	Test A rating (% disease control) (Plasmopara viticola; "*" compound tested at 40 ppm)	Test B rating (% disease control) (Phytophthora infestans [1]; "**" compound tested at 10 ppm)	Test C rating (% disease control) (Phytophthora infestans [2]; "**" compound tested at 10 ppm)	Test A rating (% disease control) (Plasmopara viticola; "**" compound tested at 10 ppm)
Cc1ccc(C)c(N=C(C#N)N2CCC(c3nc(C4=NOC(c5ccccc5)C4)cs3)CC2)c1 (stereo not drawn) [compound 32]	58%	0%	31%			
Cc1ccc(C)c(S(=O)(=O)NC(=O)N2CCC(c3nc(C4=NOC(c5ccccc5)C4)cs3)CC2)c1 (stereo not drawn) [compound 33]	0%	0%	0%			
CONC(=Nc1cc(C)ccc1C)N1CCC(c2nc(C3=NOC(c4c(F)cccc4F)C3)cs2)CC1 (stereo not drawn) [compound 34]	100%	97%	100%			
CNC(=Nc1cc(C)ccc1C)N1CCC(c2nc(C3=NOC(c4c(F)cccc4F)C3)cs2)CC1 (stereo not drawn) [compound 35]	86%	26%	0%			
Cc1ccc(C)c(C(=O)NC(=O)N2CCC(c3nc(C4=NOC(c5c(F)cccc5F)C4)cs3)CC2)c1 (stereo not drawn) [compound 36]	99%	99%	0%			
Cc1ccc(C)c(C(=O)NC(=O)N2CCC(c3nc(C4=NOC(c5ccccc5F)C4)cs3)CC2)c1 (stereo not drawn) [compound 37]	63%	0%	0%			
Cc1ccc(C)c(N=C(N(C)C)N2CCC(c3nc(C4=NOC(c5c(F)cccc5F)C4)cs3)CC2)c1 (stereo not drawn) [compound 38]	33%	0%	8%			
CCONC(=Nc1cc(C)ccc1C)N1CCC(c2nc(C3=NOC(c4c(F)cccc4F)C3)cs2)CC1 (stereo not drawn) [compound 39]	100%	97%	99%			
Cc1ccc(C)c(C(=O)C(=O)N2CCC(c3nc(C4=NOC(c5ccccc5F)C4)cs3)CC2)c1 (stereo not drawn) [compound 40]	100%	98%	99%			
Cc1cc(C(F)(F)F)nn1C(=O)C(=O)N1CCC(c2nc(C3=NOC(c4ccccc4F)C3)cs2)CC1 (stereo not drawn) [compound 41]	26%	0%	17%			
Cc1ccc(C)c(N=C(NC#N)N2CCC(c3nc(C4=NOC(c5c(F)cccc5F)C4)cs3)CC2)c1 (stereo not drawn) [compound 42]	100%	99%	99%			
Cc1cc(C(F)(F)F)nn1C(=O)C(=O)N1CCC(c2nc(C3=NOC(c4c(F)cccc4F)C3)cs2)CC1 (stereo not drawn) [compound 43]	25%	0%	0%			
O=C(C(=O)N1CCC(c2nc(C3=NOC(c4ccccc4F)C3)cs2)CC1)c1ccccc1 (stereo not drawn) [compound 45]	0%	0%	0%			
O=C(C(=O)N1CCC(c2nc(C3=NOC(c4ccccc4F)C3)cs2)CC1)c1cccs1 (stereo not drawn) [compound 46]	0%	0%	0%			
O=C(C(=O)N1CCC(c2nc(C3=NOC(c4ccccc4F)C3)cs2)CC1)c1ccco1 (stereo not drawn) [compound 47]	33%	0%	85%			
CCC(O)C(=O)N1CCC(c2nc(C3=NOC(c4c(F)cccc4F)C3)cs2)CC1 (stereo not drawn) [compound 48]	100%	91%	88%			
CC(C)C(O)C(=O)N1CCC(c2nc(C3=NOC(c4c(F)cccc4F)C3)cs2)CC1 (stereo not drawn) [compound 49]	98%	100%	97%			

Compound	Test B rating (% disease control) (Phytophthora infestans [1]; "*" compound tested at 40 ppm)	Test C rating (% disease control) (Phytophthora infestans [2]; "*" compound tested at 40 ppm)	Test A rating (% disease control) (Plasmopara viticola; "*" compound tested at 40 ppm)	Test B rating (% disease control) (Phytophthora infestans [1]; "**" compound tested at 10 ppm)	Test C rating (% disease control) (Phytophthora infestans [2]; "**" compound tested at 10 ppm)	Test A rating (% disease control) (Plasmopara viticola; "**" compound tested at 10 ppm)
Cc1cc(C)c(C(=O)C(=O)N2CCC(c3nc(C4=NOC(c5ccccc5F)C4)cs3)CC2)c(C)c1 (stereo not drawn) [compound 51]	52%	0%	0%			
Cc1ccc(C)c(C(=O)C(=O)N2CCC(c3nc(C4=NOC(c5c(F)cccc5F)C4)cs3)CC2)c1 (stereo not drawn) [compound 52]	100%	96%	100%			
CS(=O)(=O)CC(=O)N1CCC(c2nc(C3=NOC(c4c(F)cccc4F)C3)cs2)CC1 (stereo not drawn) [compound 62]	99%	95%	99%			
N#CCC(=O)N1CCC(c2nc(C3=NOC(c4c(F)cccc4F)C3)cs2)CC1 (stereo not drawn) [compound 63]	100%	92%	94%			
CC(=O)OCC(=O)N1CCC(c2nc(C3=NOC(c4c(F)cccc4F)C3)cs2)CC1 (stereo not drawn) [compound 64]	100%	68%	80%			
CC(=O)C(=O)N1CCC(c2nc(C3=NOC(c4c(F)cccc4F)C3)cs2)CC1 (stereo not drawn) [compound 65]	100%	99%	88%			
CCCC(=O)C(=O)N1CCC(c2nc(C3=NOC(c4c(F)cccc4F)C3)cs2)CC1 (stereo not drawn) [compound 67]	100%	99%	100%			
CC(C)C(=O)C(=O)N1CCC(c2nc(C3=NOC(c4c(F)cccc4F)C3)cs2)CC1 (stereo not drawn) [compound 68]	100%	93%	99%			
CC(C)CC(=O)C(=O)N1CCC(c2nc(C3=NOC(c4c(F)cccc4F)C3)cs2)CC1 (stereo not drawn) [compound 69]	84%	64%	99%			
CCC(C)C(=O)C(=O)N1CCC(c2nc(C3=NOC(c4c(F)cccc4F)C3)cs2)CC1 (stereo not drawn) [compound 70]	100%	88%	100%			
O=C(C(=O)N1CCC(c2nc(C3=NOC(c4c(F)cccc4F)C3)cs2)CC1)c1ccco1 (stereo not drawn) [compound 72]	100%	99%	100%			
CCCCCCC(=O)N1CCC(c2nc(C3=NOC(c4c(F)cccc4F)C3)cs2)CC1 (stereo not drawn) [compound 73]	100%	99%	99%			
O=C(COCC(F)(F)F)N1CCC(c2nc(C3=NOC(c4c(F)cccc4F)C3)cs2)CC1 (stereo not drawn) [compound 74]				10%	97%	100%
O=C(COCCC(F)(F)F)N1CCC(c2nc(C3=NOC(c4c(F)cccc4F)C3)cs2)CC1 (stereo not drawn) [compound 75]				100%	97%	100%
O=C(CC1CCCC(C(F)(F)F)C1)N1CCC(c2nc(C3=NOC(c4c(F)cccc4F)C3)cs2)CC1 (stereo not drawn) [compound 76]	67%	0%	66%			
O=C(CCOCC(F)(F)F)N1CCC(c2nc(C3=NOC(c4c(F)cccc4F)C3)cs2)CC1 (stereo not drawn) [compound 77]				100%	99%	100%
methyl 4-[4-(4,5-dihydro-5-phenyl-3-isoxazoly)-2-thiazolyl]-N-(2,5-dimethylphenyl)-1-piperidinecarboximidate [Example 3]	100%	99%	99%			
